Measurements as given in patent publication US7504489B2, “Inhibitors of ADP-ribosyl transferases, cyclases, and hydrolases, and uses thereof” (Albert Einstein College of Medicine of Yeshiva University, priority 2001, dated 2009).
Values joined by “and” are separate entries in the source; they are usually repeats but may differ in a detail not shown here. Identical values can stand only once. Each block holds one molecule with its values, some of them ahead of it.

How the values were obtained:
CD38 [1] = molecular target: T1, CD38 (Homo sapiens, UniProt P28907); experiment: Radiochemical measurement of reaction rates (covalent labelling of CD38 by [2′-3H] inhibitor, gel filtration); format: binding; settings: for kon (radioactivity, radiolabeled inhibitor bound versus time): [2′-3H]βNdR 9 μM, CD38 1.2 μM, gel filtration
T1 sequence (P28907 45-300): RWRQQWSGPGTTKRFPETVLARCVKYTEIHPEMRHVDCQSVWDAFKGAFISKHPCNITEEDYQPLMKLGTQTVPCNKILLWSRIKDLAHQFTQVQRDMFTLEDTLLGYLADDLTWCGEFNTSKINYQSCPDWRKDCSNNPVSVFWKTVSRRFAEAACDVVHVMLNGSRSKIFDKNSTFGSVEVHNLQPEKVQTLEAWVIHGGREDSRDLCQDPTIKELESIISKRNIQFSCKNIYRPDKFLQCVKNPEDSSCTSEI
Method: [2′-^3H]β-1′-nicotinamide-2′-deoxyribose ([2′-^3H]βNdR) was used to measure the covalent interaction of inhibitor with CD38 as follows: 9 μM inhibitor with specific activity of 1233 cpm/nmol was incubated with 1.2 μM CD38 in a volume of 1 ml of 50 mM potassium phosphate (pH 7.5). The reactions were started by enzyme addition, and quenched by freezing in a dry ice/acetone bath after 30, 60, 90, 120, 250, 500, and 1000 sec. Samples were placed on 1 ml gel filtration columns (0° C.) that were used to separate protein from free inhibitor. Columns were cooled on ice, and eluted with cold (0° C.) 10 mM potassium phosphate (pH 7.5) as eluant. Fractions (1 ml) were combined with 9 ml of scintillation fluid, and counted for radioactivity. A sample lacking enzyme, but having the same incubations, was performed as a blank control. A sample using the α-[2′-^3H]nicotinamide-2′-deoxyribose of equal concentration and specific activity, and having the same incubations, was performed as a second control. The observed cpm in the protein peak (fractions 3+4) was fitted to the equation A(t)=A0(1−exp(−kt))+B, where A(t) is the cpm in protein at time t, A0 is the cpm at reaction completion, k is the observed pseudo-first-order rate constant, B is the activity of the blank, and t is the time in seconds.
The covalent interaction of [2′-^3H]β-1′-pyridyl-2′-deoxyribose with CD38 was measured as follows: 25 mM inhibitor with specific activity of 1233 cpm/nmol was incubated with 25.2 μM CD38 in a volume of 50 μl of 50 mM Tricine (pH 7.5). The reactions were started by enzyme addition, and quenched by freezing in a dry ice/acetone bath after 2 h, 7200 s. Samples were placed on (0° C.) 1-ml gel filtration columns (P-10) that were used to separate protein from free inhibitor. Columns were cooled on ice, and eluted with cold (0° C.) 10 mM potassium phosphate (pH 7.5) as eluant. Fractions (1 ml) were combined with 9 ml of scintillation fluid, and counted for radioactivity. A sample lacking enzyme, but undergoing the same incubations, was performed as a blank control. A sample using the α-[2′-^3H]nicotinamide-2′-deoxyribose of equal concentration and specific activity, and the same incubations, was used as a second control. The observed cpm in the protein peak (fractions 3+4) were fitted to the equation A(t)=A0(1−exp(−kt))+B, where A(t) is the cpm in protein at time t, A0 is the cpm at reaction completion, k is the observed pseudo-first-order rate constant, B is the activity of the blank, and t is the time in s.

CD38 [2] = molecular target: T1, CD38; experiment: Determination of Ki and kchem by competitive method (NGD+ substrate, absorbance at 295 nm); format: biochemical
Method: CD38 was used to start reactions containing 1-ml solutions of 50 mM potassium phosphate, 100 μM NGD, and 50, 25, 12.5, 6.25, and 0 μM βNdR. Reactions were initiated with 2 μl of 7 μM CD38, and reaction progress was monitored by measurement of absorbance at 295 nm. The initial slopes were used to determine the Ki value. The time course of absorbance for each sample was fitted to the equation A(t)=vt+(b−v)(1−exp(−kt))/k+A0, where k is the observed rate constant, b is the initial rate, v is the final rate, and A0 is the initial absorbance. The rate constant kchem (FIG. 3) was determined as reported (19).
This mechanism of inhibition was tested by treatment of CD38 with different concentrations of inhibitor in the presence of 50 Km of substrate to establish values for Ki and kchem. In the presence of 100 μM NGD^+, reaction mixtures containing 0 to 50 μM βNdR were initiated by addition of enzyme (FIG. 8).

CD38 [3] = molecular target: T1, CD38; experiment: CD38 activity and inhibition measurements (time-dependent inactivation, NGD+ to cGDPR, absorbance at 295 nm); format: biochemical; settings: for residual enzymatic activity, % of the control: 10 min after treatment of enzyme (500 nM) with excess inhibitor (10 μM), 10 min, 10 µM
Method: […] Aliquots of the reaction were assayed by placing 5 μl of the reaction mixture into 1 ml of 50 mM HEPES (pH 7.5) containing 100 μM NGD^+, at 30, 60, 90, 120, 180, or 300 sec. The conversion of NGD^+ to cGDPR was monitored by determining absorbance at 295 nm. A reaction mixture lacking inhibitor was used as a control. Activity was determined as a function of time, and fitted to the equation A(t)=[…]^-kt, where A0 is activity at time zero (control), t is time in seconds, and k is the observed pseudo-first-order rate constant. Human CD38 (200 nM) was incubated with β-1'-pyridyl-2'-deoxyribose (25 mM) in a volume of 100 μl of 50 mM Tricine (pH 7.5). Aliquots of the reaction (5 μl) were assayed by placing into 1 ml of 50 mM HEPES (pH 7.5) containing 100 μM NGD^+ at 750, 1500, 2250, 3000, 4000, 8000, and 14400 s. The conversion of NGD^+ to cGDPR was monitored by absorbance at 295 nm. A reaction mixture lacking inhibitor was used as a control. Activity was determined as a function of time, and fitted to the equation A(t)=C+[…]^-kt, where A0 is activity at time zero (control), t is time in s, k is the observed pseudo-first-order rate constant, and C represents uninhibited activity at equilibrium.

CD38 [4] = molecular target: T2, CD38 (Homo sapiens, UniProt P28907); settings: 37° C.; cited from earlier work
T2 sequence (P28907 1-300): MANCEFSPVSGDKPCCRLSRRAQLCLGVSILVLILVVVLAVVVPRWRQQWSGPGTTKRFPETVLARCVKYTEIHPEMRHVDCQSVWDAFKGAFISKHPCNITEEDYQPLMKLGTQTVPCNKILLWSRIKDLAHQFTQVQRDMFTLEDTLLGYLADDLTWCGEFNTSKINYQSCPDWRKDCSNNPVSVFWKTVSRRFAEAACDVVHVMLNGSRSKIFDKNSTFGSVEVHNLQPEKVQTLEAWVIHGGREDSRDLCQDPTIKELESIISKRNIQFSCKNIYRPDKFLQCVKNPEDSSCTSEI

CD38 [5] = molecular target: T1, CD38; experiment: Determination of Ki and kchem by competitive method (NGD+ substrate, absorbance at 295 nm); format: biochemical; remark: listed apart in the source
CD38 [6] = molecular target: T1, CD38; experiment: Off-rate measurement (recovery of CD38 catalytic activity after inactivation); format: biochemical
Method: Recovery of CD38 catalytic activity after inactivation with β-1′-nicotinamide-2′-deoxyribose was measured in reaction mixtures containing 500 nM CD38, 50 mM inhibitor, and 15 μM deoxyriboside. After timed intervals, 5 μl of the reaction mixture were added to a 1-ml reaction of 50 mM HEPES (pH 7.5) containing 300 μM NGD^+. A control was also prepared without the inhibitor. Production of cGDPR was determined by monitoring absorbance at 295 nm. The absorbance was fitted to the equation A(t)=vt+(b−v)(1−exp(−kofft))/koff+A0 (19), where koff is the observed rate constant, b is the initial rate, v is the final rate, and A0 is the initial absorbance. Recovery of CD38 catalytic activity after inhibition by βNdR was measured by adding inactivated CD38 to solutions of NGD^+, and monitoring absorbance change at 295 nm for periods of 3-4 h. The recovery process was slow: full catalytic activity was not restored over this time period. However, the measured rate constant for recovery could be measured by regressive fit of the data to the activity recovery equation, A(t)=vt+(b−v)(1−exp(−kofft))/koff+A0, where koff is the observed rate constant, b is the initial rate, v is the final rate, and A0 is the initial absorbance. […] The proposed mechanism of recovery operates through the hydrolytic path (FIG. 4).

[7] = listed as β-1′-nicotinamide-2′-deoxyribose

covalent attachment of the sugar moiety to the enzyme (CD38 [1]; [2′-3H] labelled inhibitor, gel-filtration): confirmed covalent attachment
Ki (CD38 [2]; 5′-phospho derivative, similar studies, read-out: Ki): > 200 µM
effect of extended incubation on CD38 (CD38 [3]; 200 μM inhibitor): inhibited the enzyme
minimum value for kchem (CD38 [3]; 200 μM inhibitor, extended incubations, activity versus time): ≥ 0.00022 s⁻¹
Molecule: 5′-phospho-1′-β-pyridyl-2′-deoxyribose [5′-phospho-1′-pyridyl-deoxyribose]

Molecule: NC(=O)c1ccc[n+]([C@@H]2O[C@H](COP(=O)(O)O)[C@@H](O)[C@H]2O)c1 [NMN^+]
kcat for hydrolysis (hydrolysis of the covalent intermediate) (CD38 [4]): 512 s⁻¹

Molecule: NC(=O)c1ccc[n+]([C@@H]2O[C@H](COP(=O)([O-])OP(=O)(O)OC[C@H]3O[C@@H](n4cnc5c(=O)[nH]c(N)nc54)[C@H](O)[C@@H]3O)[C@@H](O)[C@H]2O)c1 [NGD^+, Nicotinamide guanine dinucleotide, reference compound]
Km (CD38 [5]; CD38 substrate): 2 µM

koff, rate constant for recovery (activity recovery, hydrolysis) (CD38 [6]; inactivated CD38 added to NGD+, 3-4 h, no nicotinamide): 5e-06 s⁻¹
rate of CD38-deoxyribose hydrolysis relative to CD38 ribose 5-phosphate (CD38 [6]; ratio of hydrolysis rates of covalent intermediates): 10^−8
kon (radioactivity, radiolabeled inhibitor bound versus time) (CD38 [1]): 1540 M⁻¹ s⁻¹
kon (radioactivity, radiolabeled inhibitor bound versus time) (CD38 [1]; [7]): 1500 M⁻¹ s⁻¹
Ki (CD38 [1]; kon from radioactivity, read-out: Kieff = koff/kon (Radioactivity, koff)): 0.0033 µM
Ki (CD38 [1]; read-out: Kieff = koff/kon (kon from radioactivity)): 0.0032 µM
kchem, rate constant for chemical reaction (competitive onset) (CD38 [2]; 100 μM NGD+, 0 to 50 μM inhibitor, listed as β-1′-nicotinamide-2′-deoxyribose): 0.0126 s⁻¹
Ki (CD38 [2]; 100 μM NGD+, 0 to 50 μM inhibitor, listed as β-1′-nicotinamide-2′-deoxyribose, read-out: Ki (competitive, initial slopes)): 2.5 µM
Ki (CD38 [2]; 100 μM NGD+, 0 to 50 μM inhibitor, read-out: Ki (competitive, initial slopes)): 1 µM
Ki (CD38 [2]; average of the three Kieff values, read-out: Kieff (Average of values)): 0.0029 µM
Ki (CD38 [2]; listed as β-D-1′-nicotinamide-2′-deoxyribofuranoside, read-out: Kieff, effective inhibition constant (average)): 0.0029 µM
Ki (CD38 [2]; read-out: Kieff = Kikoff/kchem): 0.0004 µM
Ki (CD38 [2]; read-out: Kieff, effective inhibition constant (average)): 0.0029 µM and 0.002 µM
residual enzymatic activity, % of the control (CD38 [3]): less than 5%
residual enzymatic activity, % of the control (CD38 [3]; [7]): < 5%
Ki (CD38 [3]; kon from activity decay, read-out: Kieff = koff/kon (Activity, koff)): 0.0051 µM
Ki (CD38 [3]; read-out: Kieff = koff/kon (kon from activity decay)): 0.005 µM
Molecule: NC(=O)c1ccc[n+]([C@H]2C[C@H](O)[C@@H](CO)O2)c1 [βNdR, β-1′-nicotinamide-2′-deoxyribose]

Ki (CD38 [2]; calculated value, read-out: Kieff (koffKi/kchem)): 323 µM
Kieff relative to Kieff for βNdR (CD38 [2]; times larger): 10^5 times
extent of inhibition achieved (CD38 [3]; 25 mM inhibitor, limited by long onset times and inhibitor decomposition): 60-80%
rate of covalent inactivation, equivalent to kchem (CD38 [3]; saturating concentration (25 mM), absence of NGD+): 0.00017 s⁻¹
Ki (CD38 [5]; 50 μM to 50 mM inhibitor, 5 μM (3 Km) NGD+, read-out: Ki for CD38 inhibition): 11000 µM
Molecule: OC[C@H]1O[C@@H]([n+]2ccccc2)C[C@@H]1O [β-pyridyl-deoxyribose, β-1′-pyridyl-2′-deoxyribose]
